Columns and labels:
[1] = biological target: T1, human P2Y12 (Homo sapiens, UniProt Q9H244); experiment: ERK activation (phosphorylation immunoblot) in P2Y12-expressing CHO cells; format: cell-based; parameters: polyhistidine (HIS) tag (C); expressed in transfected cells; conditions: for ERK activation by agonist: stimulated 15 min
Procedure: FIG. 1. Activation by recombinant human P2Y12 receptors in response to cys-LTs. The human P2Y12 receptor cDNA was cloned in forward and reverse orientation into the expression vector pEF1/His B and transfected into CHO cells using Fugene HD reagent. Stably-expressing clones were selected using G418 (1000 μg/ml), and expression of the construct was confirmed by cytofluorographic detection of the HIS tag. 1A. […] Results in second experiment were identical. 1B. SDS-PAGE immunoblots showing phosphorylation of ERK2 by CHO cells stably expressing human P2Y12 receptors in reverse (negative control) or forward orientations. […] The blots were stripped and re-probed with an antibody (Ab) recognizing total ERK1 and ERK2. […] 1C. Effect of the selective P2Y12 receptor antagonist 2-MesAMP (MeS) on ligand-induced ERK phosphorylation. P2Y12 receptor expressing CHO cells were stimulated with the same doses of agonists used in 1A, in the absence or presence of 2-MesAMP (100 μM). 1D. Comparison of P2Y12 receptor-mediated responses to cys-LTs with those of recombinant human CysLT1R and CysLT2R expressed in CHO cells, and the effect of the CysLT1R antagonist MK571 (1 μM). Data in 1B-1D are from individual experiments that were repeated at least 3 times with similar results.
FIG. 8. […] Cells were stably transfected with the human P2Y12 construct and stimulated for 15 minutes with the indicated ligand concentrations. […] Results in a second experiment were similar.
(§1) A P2Y12 receptor cDNA was amplified by reverse transcriptase polymerase chain reaction (RT-PCR) from RNA extracted from primary hMCs and cloned into a mammalian expression vector. Expression was confirmed by detection of a histidine (HIS) tag by flow cytometry. Another cohort of CHO cells were stably transfected with a P2Y12 receptor construct in reverse orientation as a negative control. […] The cys-LT-induced ERK activation blocked by pre-treatment of the cells with pertussis toxin (PTX), was attenuated by treatment with the P2Y12 receptor-selective antagonist 2-methylthioadenosine monophosphate (2-MesAMP) (FIG. 1C), and was resistant to MK571, an inhibitor that blocks CysLT1R and some P2Y receptors (Mamedova, L., et al. 2005. Biochem. Pharmacol. 71:115-125). […] These responses were resistant to PTX and 2-MesAMP, and susceptible to MK571 in the case of the CysLT1R transfectants.
(§2) A human P2Y12 receptor cDNA was amplified by 30 cycles of PCR from reverse-transcribed total RNA extracted from primary cord blood hMCs. The primer sequences were 5′-[…] (SEQ ID NO: 1) and 3′-[…] (SEQ ID NO: 2). The fragment was cloned into a TA vector (INVITROGEN™). After verifying the nucleotide sequence, the fragment was subcloned into the multiple cloning site of the expression vector pEF1/His B, encoding a C-terminal polyhistidine (HIS) tag. […]

[2] = biological target: T1, human P2Y12; experiment: Binding of [P^33]2-MesADP and [H^3]LTE4 to membranes of COS-7 cells transfected with the human P2Y12 construct; parameters: polyhistidine (HIS) tag (C); expressed in transfected cells; host or cells: COS-7 cells, transient; conditions: COS-7 membranes, forward P2Y12 construct
Procedure: FIG. 10. Competitive ligand binding assays. 10A. […] Specific binding (typically 50-75% of the total) was calculated by subtracting the amount of radiolabel that was insensitive to the selective P2Y12 receptor antagonist 2-MesAMP. Nonspecific binding was essentially identical in the membranes with and without P2Y12 receptor knockdown. The dose response for the LAD2 membranes are from a single experiment repeated four times with similar results. The binding on the LAD2 cells with P2Y12 knocked down was repeated twice. 10B. Specific binding of radiolabeled ADP (2000 nM) to membranes of LAD2 cells. […] Results are mean±SD from three separate experiments. 10C. Conversion of radiolabeled LTD4 to LTE4 as confirmed by HPLC (left). […] Results in a second experiment were similar 10D. Competitive binding of radiolabeled 2-MesADP to COS-7 cells transfected with the human P2Y12 construct.
Competitive radioligand binding assays were performed using [H^3]ADP (the known natural ligand of P2Y12 receptors) and unlabeled LTs as competitors. […] The membranes from the transfectants expressing the forward construct bound [P^33]2-MesADP, a selective P2Y12 receptor agonist.

[3] = biological target: T1, human P2Y12; experiment: Binding of cys-LTs to membranes of CHO cells stably expressing the human P2Y12 receptor; parameters: polyhistidine (HIS) tag (C); expressed in transfected cells
Text: as §1
as §2, with “tag. A plasmid expressing the P2Y12 receptor construct in the forward orientation were transfected into CHO cells using Fugene HD reagent according to manufacturer's protocol. A construct in the reverse sequence was transfected in parallel as a negative control.” for “tag.”
[^3H] […] Protein concentration was determined using Biorad Protein Assay Kit. […] The residual membrane-associated [^3H] on the filter was determined in 2 ml scintillation fluid by beta counter (Perkin Elmer). For [^3H]ADP, specific binding was determined by subtracting the amount of [^3H] bound in the presence of 100 μM 2-MesADP from total binding.

T1 sequence (Q9H244 whole entry): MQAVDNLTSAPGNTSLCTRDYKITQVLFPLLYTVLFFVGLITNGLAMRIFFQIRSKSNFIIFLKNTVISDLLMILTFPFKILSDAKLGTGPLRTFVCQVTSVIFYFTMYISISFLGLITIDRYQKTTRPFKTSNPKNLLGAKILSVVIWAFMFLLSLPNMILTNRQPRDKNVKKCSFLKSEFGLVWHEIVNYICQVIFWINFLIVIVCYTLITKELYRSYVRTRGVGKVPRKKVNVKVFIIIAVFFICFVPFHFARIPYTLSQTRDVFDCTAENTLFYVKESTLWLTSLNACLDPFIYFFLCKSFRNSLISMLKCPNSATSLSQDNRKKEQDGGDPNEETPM

Row | ERK activation by agonist [1] | binding of [H^3]LTE4 to membranes [2] | competition for [P^33]2-MesADP binding [2] | Kd ([3]; membranes of P2Y12 CHO transfectants, read-out: affinity constant) [nM] | binding to membranes of the transfectants [3] | effect on cys-LT-induced ERK activation ([1]; 2-MesAMP 100 μM, MK571 1 μM) | Compound
1 | robust, dose-dependent ERK activation | failed to bind | not competed | 10 |  |  | CCCCC/C=C\C\C=C/C=C/C=C/[C@@H](SC[C@H](N)C(=O)O)[C@@H](O)CCCC(=O)O [LTE4]
2 | robust, dose-dependent ERK activation |  | not competed |  | also bound |  | CCCCC/C=C\C\C=C/C=C/C=C/[C@@H](SC[C@H](N)C(=O)NCC(=O)O)[C@@H](O)CCCC(=O)O [LTD4]
3 |  |  |  |  |  | resistant | CN(C)C(=O)CCSC(SCCC(=O)O)c1cccc(/C=C/c2ccc3ccc(Cl)cc3n2)c1 (centres unmarked) [MK571]
